According to US20240224991A9, “NANO-DISPERSION COMPRISING CELLULOSE NANOCRYSTAL AS PESTICIDE/FUNGICIDE CARRIERS FOR AGRICULTURE AND AQUACULTURE” (priority 2022, published 2024):

Tested on: mealworms
Test: Pest mortality test, mealworms on sprayed spinach leaves
Type: in vivo, mealworms (larval form of the mealworm beetles)
Conditions: 100 ppm DEL, in 2 hours, FIG. 3C
Procedure: Deltamethrin and permethrin/CNC nano-dispersions with agrochemical and CNC mass ratio of 1:100 were prepared according to the said process in example 5, and they are designated as CNC-DEL and CNC-PER, respectively. The resulting nano-dispersions were diluted to 0.1 wt %, 0.5 wt %, 1.0 wt % and 1.5 wt %, where the corresponding active ingredient concentration was around 10 ppm, 50 ppm, 100 ppm and 150 ppm. To perform the pest control test, fresh spinach leaves were spread on a petri dish (10 cm diameter), then 2 mL of the dispersion was sprayed on top (1 mL) and bottom (1 mL) of the leave surface, and 20 active worms were placed on top of the leaves. The survival rate of the works was recorded at set time intervals. In comparison, the pest control efficiency of 1 wt % CNC (0 ppm DEL) and DEL control (100 ppm DEL) were also investigated and compared with 1.0 wt % CNC-DEL (100 ppm DEL). In addition, the pest control efficiency of CNC-PER was compared with the commercial EC pesticide ORTHO® HOME DEFENSE® MAX™ under the same PER dosage.
Both permethrin and deltamethrin are wide spectrum pesticides that belong to synthetic pyrethroids pesticides. Their mode of action is mainly based on contact and stomach toxicity. The pest control efficiency of CNC-DEL and CNC-PER nano-dispersions were evaluated with two model worms, mealworms and waxworms. […]

In the case of `CC1(C)[C@H](C(=O)O[C@H](C#N)c2cccc(Oc3ccccc3)c2)[C@@H]1C=C(Br)Br` [DEL control, Deltamethrin], the mortality at 100 ppm is reported as 30%.
